{"source": "patent US7781393B2", "about": "“Methods for inhibiting tumor cell growth” (Dana-Farber Cancer Institute, Inc., priority 2004, dated 2010)", "key": {"[1]": {"tested_on": "MM cell lines", "test": "MTT colorimetric survival assay, serum-stimulated MM cell lines", "assay_type": "cell-based, human", "method": "(§1) Cell survival of IGF-1R inhibitor-treated cells was examined using the 3-(4,5-Dimethylthiazol-2-yl)-2,5-Diphenyltetrazolium Bromide (MTT) calorimetric assay. […] At the end of each treatment, cells were incubated with 1 mg/ml MTT for 4 hours at 37° C.; a mixture of isopropanol and 1N HCl (23:2, v/v) was then added under vigorous pipetting to dissolve the formazan crystals. Dye absorbance (A) in viable cells was measured at 570 nm, with 630 nm as a reference wavelength. Cell survival was estimated as a percentage of the value of untreated controls. All experiments were repeated at least three times, and each experimental condition was repeated at least in quadruplicate wells in each experiment."}, "[2]": {"tested_on": "58 hematologic and solid tumor cell lines", "test": "MTT colorimetric survival assay, panel of hematologic and solid tumor cell lines", "assay_type": "cell-based, human", "conditions": "all cell lines; 0-10 μM for 72 hours"}, "[3]": {"tested_on": "INA-6 MM cells", "test": "MTT assay of responsiveness to IL-6", "assay_type": "cell-based, human", "conditions": "co-treatment 500 nM, serum, 72 hours", "method": "as §1"}, "[4]": {"tested_on": "PC-3 prostate cancer cells", "test": "MTT assay of responsiveness to IL-6", "assay_type": "cell-based, human", "conditions": "co-treatment 500 nM, serum, 72 hours", "method": "as §1"}, "[5]": {"tested_on": "MM-1S-Luc human MM cells", "test": "Model of diffuse skeletal MM lesions, bioluminescence imaging and survival", "assay_type": "in vivo", "method": "Briefly, male (6 to 8-week old) SCIDI/NOD mice (Jackson Laboratories, Bar Harbor, Me.) were sublethally irradiated (300 rads) using ^137CS γ-irradiator source. After 3-6 hours, 5×10^6 MM-1S-luc^+ cells in 100 μL of phosphate-buffered saline (PBS) was injected via the tail vein into each mouse. Mice were monitored daily for changes in their body weight, signs of infection, and paralysis, and weekly by whole-body bioluminescence imaging utilizing the In Vivo Imaging System (IVIS, Xenogen Corp, Alameda, Calif.) with total imaging time of 2 min, bin 2. Total body bioluminescence was quantified by integrating the photonic flux (photons/sec) through a standardized region of interest encompassing each mouse (Living Images, Xenogen). […] Melphalan (Alkeran, GlaxoSmithKline, Research Triangle Park, N.C.) was formulated according to manufacturer's instructions, and was administered by i.p. injection. All animal studies were approved by the Dana-Farber Cancer Institute Animal Care and Use Committee.\nStatistical significance for in vitro assay results was examined by 2-way analysis of variance, followed by Duncan's post-hoc test. Statistical significance for bioluminescence imaging studies was determined by two-tailed student's t-test. In all analyses, P<0.05 was considered statistically significant. For assessment of in vivo anti-tumor activity, the overall survival of mice was defined as the time between i.v. injection of tumor cells and sacrifice or, death and was compared across different treatment groups with Kaplan-Meier survival analysis.\nThe in vivo anti-tumor activity of IGF-1R inhibition in a mouse xenograft model of MM was examined. The MM cell line MM-1S was engineered to stably express firefly luciferase fused to a selectable marker (neomycin phosphotransferase or enhanced GFP). Sub-lethally irradiated NOD/SCID mice were injected intravenously with MM-1S-Luc cells and tumor distribution was followed by serial whole-body non-invasive imaging of visible light emitted by luciferase-expressing tumor cells upon injection of mice with luciferin.\nSublethally irradiated NOD/SCID mice were injected with MM1S-Luc cells, and serially imaged to monitor tumor burden. After 2-3 weeks, cohorts of mice with similarly increasing tumor burden were divided into control and treatment groups."}, "[6]": {"tested_on": "CD138+ MM cells", "test": "Flow cytometric analysis of unpurified bone marrow mononuclear cells", "assay_type": "cell-based, human", "conditions": "500 nM, 72 hours, 20% serum; BM stromal cells not suppressed"}, "[7]": {"tested_on": "VEGF secretion by myeloma cells and BMSCs", "test": "VEGF ELISA, MM cells and BMSCs alone and in co-culture", "assay_type": "cell-based, human", "conditions": "500 nM for 24 hrs", "method": "(§2) Flow cytometric analyses for IGF-1R, and IGF-2R were performed as previously described on a EPICS-XL-MCL flow cytometer (Beckman Coulter). Previously described protocols were applied for immunoblotting analyses; TRAP telomerase activity assay; 20S proteasome chymotryptic activity assay; DNA binding activity ELISAs for quantitative assessments of NF-κB and HIF-1a transcriptional activities. VEGF and IGF-1 ELISAs were performed according to manufacturer's instructions (R&D Systems, Minneapolis, Minn.)."}, "[8]": {"tested_on": "MM-1S cells", "test": "In vitro sensitization of MM-1S cells to anti-cancer drugs", "assay_type": "cell-based, human", "conditions": "ADW-742 750 nM or α-IR3 2 μg/ml for final 24 hours", "method": "Cells were cultured in the presence of 10% FBS, and results are expressed as mean ±SD of 3 independent experiments.\nas §1"}, "[9]": {"tested_on": "MM cells, prostate cancer cells, SK-N-MC sarcoma cells", "test": "Sensitization of tumor cells to other anti-cancer therapies in vitro", "assay_type": "cell-based, human", "conditions": "MM cells to doxorubicin, melphalan, dexamethasone, TRAIL/Apo2L, PS-341, SK-N-MC to Fas ligation", "method": "The ability of IGF-1R inhibitors to sensitize tumor cells to other anti-cancer therapies in vitro was determined."}, "[10]": {"tested_on": "MM-1S cells", "test": "Immunoblotting of anti-apoptotic signaling cascades", "assay_type": "cell-based, human", "conditions": "500 nM, serum-containing medium", "method": "as §2"}, "[11]": {"tested_on": "HIF-1α", "test": "HIF-1α DNA binding activity ELISA", "assay_type": "cell-based, human", "method": "Flow cytometric analyses for IGF-1R, and IGF-2R were performed as previously described on a EPICS-XL-MCL flow cytometer (Beckman Coulter). Previously described protocols were applied for immunoblotting analyses; TRAP telomerase activity assay; 20S proteasome chymotryptic activity assay; DNA binding activity ELISAs for quantitative assessments of NF-κB and HIF-1a transcriptional activities. VEGF and IGF-1 ELISAs were performed according to manufacturer's instructions (R&D Systems, Minneapolis, Minn.). 20S proteasome chymotryptic activity assay was performed as described [Shringarpure 2003]. The transcriptional activity of DNA binding activity of NF-κB and HIF-1α was measured as previously reported. Libermann T A, et al., . Proc Natl Acad Sci USA; 2002 99: 14374-14379; Mitsiades N. et al., 2002, 99: 4079-4086; Mitsiades N. et al., 2002; Blood 99: 4525-4530 and Mitsiades N., et al 2003 Blood; 101: 2377-2380."}, "[12]": {"conditions": "monotherapy 10 mg/kg i.p. twice daily"}}}
{"smiles": "Nc1ncnc2c1c(-c1cccc(OCc3ccccc3)c1)cn2[C@H]1C[C@H](CN2CCCC2)C1", "note": "[ADW-742, trans-5-(3-benzyloxy-phenyl)-7-(3-pyrrolidin-1-ylmethyl-cyclobutyl)-7H-pyrrolo[2,3-d]pyrimidin-4-ylamine]", "values": [{"measurement": "IC50", "setting": "[1]; Homo sapiens, values generally in this range, 0-10 μM for 72 hours, read-out: IC50, serum-induced cell growth of MM cell lines", "value": "100 to 500", "unit": "nM"}, {"measurement": "activity against MM cell lines with known resistance to conventional or investigational anti-cancer agents", "setting": "[1]; also primary tumor cells from MM patients with multi-drug resistant disease", "value": "active"}, {"measurement": "inhibition of serum-induced cell growth", "setting": "[2]", "value": "Dose-dependent inhibition"}, {"measurement": "responsiveness to IL-6", "setting": "[3]", "value": "abrogated"}, {"measurement": "responsiveness to IL-6", "setting": "[4]", "value": "abrogated"}, {"measurement": "treatment-related toxicity", "setting": "[5]; 10 mg/kg i.p. twice daily", "value": "no other significant treatment-related toxicity"}, {"measurement": "median overall survival", "setting": "[5]; 10 mg/kg i.p. twice daily for 19 days, control 21 days, P=0.02 log-rank", "value": 38, "unit": "days"}, {"measurement": "anti-tumor activity, pulsatile administration", "setting": "[5]; 10 mg/kg i.p. twice daily, 4 days per week, alone", "value": "no significant anti-tumor activity"}, {"measurement": "body weight", "setting": "[5]; 10 mg/kg i.p. twice daily, between treatment groups, P=0.82", "value": "no difference in body weight"}, {"measurement": "survival, combination with melphalan", "setting": "[5]; melphalan 2.5 mg i.p once a week followed by ADW-742 10 mg/kg i.p. twice daily, 4 days per week", "value": "synergistic effect in prolonging the survival of mice"}, {"measurement": "survival of mice", "setting": "[5]; [12]", "value": "prolongs the survival of mice"}, {"measurement": "tumor growth", "setting": "[5]; [12]", "value": "significantly suppresses tumor growth"}, {"measurement": "anti-tumor efficacy, further studies", "setting": "[5]; second study same i.p. dosing, third study orally 50 mg/kg twice daily", "value": "Consistent results"}, {"measurement": "CD138+ population of malignant cells", "setting": "[6]", "value": "significant suppression"}, {"measurement": "constitutive and co-culture-induced secretion of VEGF", "setting": "[7]", "value": "suppresses"}, {"measurement": "sensitivity of MM-1S cells to dexamethasone", "setting": "[8]; dexamethasone 0.1 μM 72 hrs", "value": "enhances the sensitivity"}, {"measurement": "sensitivity of MM-1S cells to doxorubicin", "setting": "[8]; doxorubicin 50 ng/mL 48 hrs", "value": "enhance the sensitivity"}, {"measurement": "sensitivity of MM-1S cells to melphalan", "setting": "[8]; melphalan 1 μM 48 hrs", "value": "enhance the sensitivity"}, {"measurement": "sensitivity of tumor cells to other anti-cancer therapies", "setting": "[9]", "value": "increases the sensitivity"}, {"measurement": "Akt, MEK1/2 and FKHRL-1 phosphorylation", "setting": "[10]", "value": "early suppression"}, {"measurement": "intracellular levels of Akt, Bmx, IKK-α and RANKL", "setting": "[10]", "value": "decrease"}, {"measurement": "IGF-1-induced HIF-1α activity", "setting": "[11]", "value": "suppress"}]}
